In one series the test system is Hop62 (lung). Description: In vitro cytotoxicity, 48 h continuous drug exposure. Conditions: for Activity status in terms of IC50 value: Hop62, Lung; for cell growth by %: Hop62, relative to untreated control cells. Type of series: cell-based, human. On the procedure: (§1) In vitro evaluation of cytotoxic activity. The compound 5a, 5b, 5g, 5i and 5j were evaluated for in vitro anticancer activity against nine human tumour cells derived from six cancer types (colon, prostate, oral, lung, cervix and breast cancer) as shown in Table 3. […] Compounds 5a, 5b, 5g, 5i and 5j have been evaluated for their in vitro cytotoxicity in selected human cancer cell lines of colon (Colo205), lung (Hop-62), cervix (SiHa), prostate (DU145, PC3), oral (DWD, HT1080), and breast (MCF7, Zr-75-1) origin. A protocol of 48 h continuous drug exposure has been used and an […] has been used to estimate cell viability or growth. […] Compound 5a, Colo205 cell growth by 83%, DU145 cell growth by 84%, DWD cell growth by 70%, Hop62 cell growth by 87%, HT1080 cell growth by 80%, MCF7 cell growth by 73%, PC3 cell growth by 91%, SiHa cell growth by 67%, Zr-75-1 cell growth by 76%. Compound 5b, Colo205 cell growth by 20%, DU145 cell growth by 64%, DWD cell growth by 70%, Hop62 cell growth by 78%, HT1080 cell growth by 72%, MCF7 cell growth by 69%, PC3 cell growth by 72%, SiHa cell growth by 20%, Zr-75-1 cell growth by 20%. Compound 5g, Colo205 cell growth by 50%, DU145 cell growth by 20%, DWD cell growth by 94%, Hop62 cell growth by 84%, HT1080 cell growth by 94%, MCF7 cell growth by 71%, PC3 cell growth by 86%, SiHa cell growth by 74%, Zr-75-1 cell growth by 72%. Compound 5i, DU145 cell growth by 42%, Hop62 cell growth by 60%, HT1080 cell growth by 70%, Compound 5j, Colo205 cell growth by 44%, DU145 cell growth by 57%, DWD cell growth by 65%, Hop62 cell growth by 53%, HT1080 cell growth by 71%, PC3 cell growth by 81%, SiHa cell growth by 77%.

The test system of another series is Colo205 (colon). Described as above. It counts as cell-based, human. Conditions: for Activity status in terms of IC50 value: Colo205, Colon; for cell growth by %: Colo205, relative to untreated control cells. The method, then: as §1
Another series concerns Zr-75-1 (breast). The series is described as above. Type of series: cell-based, human. On the procedure:
as §1

The next series concerns PC3 (prostate). Described as above. It counts as cell-based, human. The following applies: for cell growth by %: PC3, relative to untreated control cells. On the procedure:
as §1

For another series, the system named is HT1080 (oral). Described as above. Type of series: cell-based, human. The following applies: for Activity status in terms of IC50 value: HT1080, Oral; for cell growth by %: HT1080, relative to untreated control cells. The method, then: as §1
For a further series, the system named is MCF7 (breast). The description is as above. Type of series: cell-based, human. The method, then:
as §1

The test system of another series is DU145 (prostate). Described as above. Type of series: cell-based, human. The following applies: for Activity status in terms of IC50 value: DU145, Prostate; for cell growth by %: DU145, relative to untreated control cells. On the procedure:
as §1

The next series deals with DWD (oral). Described as above. It counts as cell-based, human. The following applies: for cell growth by %: relative to untreated control cells. The method, then: as §1
The next series has as its system SiHa (cervix). The series is described as above. The following applies: for cell growth by %: relative to untreated control cells. It counts as cell-based, human. On the procedure: as §1
Series [1] has as its system duplex-form calf thymus DNA (CT-DNA). The series is described as follows: Thermal denaturation studies with CT-DNA. It counts as binding. Conditions: for ΔTm after incubation at 37° C. for 0 h / ΔTm after incubation at 37° C. for 18 h / ΔTm after incubation at 37° C. for 36 h: [PBD]:[DNA] 1:5, CT-DNA 100 μM, ligand 20 μM; for ΔTm after incubation at 37° C. for 0 h: pH 7.00, 0 h; for ΔTm after incubation at 37° C. for 18 h: pH 7.00, 18 h; for ΔTm after incubation at 37° C. for 36 h: pH 7.00, 36 h; for course of ΔTm over 0 hr, 18 hr and 36 hr (in words): incubation at 37° C. The method, then:
Compounds were subjected to thermal denaturation studies with duplex-form calf thymus DNA (CT-DNA) using an adaptation of a reported procedure. Working solutions in aqueous buffer (10 mM NaH2PO4/Na2HPO4, 1 mM Na2EDTA, pH 7.00+0.01) containing CT-DNA (100 μm in phosphate) and the PBD (20 μm) were prepared by addition of concentrated PBD solutions in DMSO to obtain a fixed [PBD]/[DNA] molar ratio of 1:5. The DNA-PBD solutions were incubated at 37° C. for 0, 18, and 36 h prior to analysis. Samples were monitored at 260 nm using a Beckman DU-7400 spectrophotometer fitted with high performance temperature controller, and heating was applied at 1° C. min−1 in the 40-90° C. range. DNA helix coil transition temperatures (Tm) were obtained from the maxima in the (dA260)/dT derivative plots. Results are given as the mean ±standard deviation from three determinations and are corrected for the effects of DMSO co-solvent using a linear correction term. Drug-induced alterations in DNA melting behaviour are given by: ΔTm=Tm(DNA+PBD)−Tm (DNA alone), where the Tm value for the PBD-free CT-DNA is 69.0±0.01.

In series [2] the test system is selected human cancer cell lines. The series is described as follows: In vitro cytotoxicity in selected human cancer cell lines (overall statements). Type of series: cell-based. Conditions: Table 3. On the procedure: as §1

≈ marks a conversion by molar mass, not a printed value. Some results are limits rather than exact numbers.

As to “7-methoxy-8-{3-[2-benzoyl-(4,6-dichlorophenyloxy)propoxy]}-(11aS)-1,2,3,11a-tetra hydro-5H-pyrrolo[2,1-c][1,4]benzodiazepine-5-one [Compound 5g]”, the “Activity status in terms of IC50 value” in the series on Hop62 (lung) worked out at 16 µg/mL; in the series on Colo205 (colon) it was 50 µg/mL; in the series with Zr-75-1 (breast) (Zr-75-1, Breast), 28 µg/mL; in the series with PC3 (prostate) (PC3, Prostate), 14 µg/mL; in the series with HT1080 (oral) it was 6 µg/mL; in the series with MCF7 (breast) (MCF7, Breast), 29 µg/mL. Besides, the “Activity status in terms of IC50 value” in the series with DU145 (prostate) was 80 µg/mL; with DWD (oral) (Oral), 6 µg/mL; in the series on SiHa (cervix) (Cervix) it was 26 µg/mL. Besides, the “cell growth by %” value is listed as 84% in the series with Hop62 (lung); 50% with Colo205 (colon); 72% in the series on Zr-75-1 (breast) (Zr-75-1, relative to untreated control cells); 86% with PC3 (prostate); 94% with HT1080 (oral); 71% in the series on MCF7 (breast) (MCF7, relative to untreated control cells). The “cell growth by %” value in the series with DU145 (prostate) came out at 20%; with DWD (oral), 94%; in the series with SiHa (cervix), 74%. The “ΔTm after incubation at 37° C. for 0 h” value in series [1] is 1.4 °C. In series [1], the “ΔTm after incubation at 37° C. for 18 h” value was 1.6 °C. Besides, in series [1], the “ΔTm after incubation at 37° C. for 36 h” value came out at 2.3 °C. In series [1], the “course of ΔTm over 0 hr, 18 hr and 36 hr (in words)” value (“course of ΔTm over 0 hr” below) is recorded as “gradually increased”. The “cytotoxicity against some cancer cell lines (in words)” value in series [2] is given as “promising cytotoxicity”.

As a reminder, the IC50 is the concentration at which inhibition is half-maximal. As for `COc1cccc2c1C(=O)c1c(O)c3c(c(O)c1C2=O)C[C@@](O)(C(=O)CO)C[C@@H]3O[C@H]1C[C@H](N)[C@H](O)[C@H](C)O1` [ADR, Adriamycin, reference compound], the half-inhibitory concentration (IC50) in the series on Hop62 (lung) (Homo sapiens, HOP-62, Hop62, Lung, read-out: Activity status in terms of IC50 value) came to 5 µg/mL (≈ 9.2 µM); with Colo205 (colon) (Homo sapiens, COLO 205, Colo205, Colon, read-out: Activity status in terms of IC50 value), 5 µg/mL (≈ 9.2 µM); in the series with Zr-75-1 (breast) (Homo sapiens, Zr-75-1, Breast, read-out: Activity status in terms of IC50 value) it was 5 µg/mL (≈ 9.2 µM); with PC3 (prostate) (Homo sapiens, PC3, Prostate, read-out: Activity status in terms of IC50 value) it was 5 µg/mL (≈ 9.2 µM); in the series with HT1080 (oral) (Homo sapiens, HT-1080, HT1080, Oral, read-out: Activity status in terms of IC50 value), 4 µg/mL (≈ 7.36 µM); in the series on MCF7 (breast) (Homo sapiens, MCF7, Breast, read-out: Activity status in terms of IC50 value), 5 µg/mL (≈ 9.2 µM). For the same compound, the IC50 with DU145 (prostate) (Homo sapiens, DU-145, DU145, Prostate, read-out: Activity status in terms of IC50 value) came to 6 µg/mL (≈ 11 µM); with DWD (oral) (Homo sapiens, Oral, read-out: Activity status in terms of IC50 value), 2 µg/mL (≈ 3.68 µM); in the series on SiHa (cervix) (Homo sapiens, Cervix, read-out: Activity status in terms of IC50 value), 5 µg/mL (≈ 9.2 µM).

For the compound `COc1cc2c(cc1O)N=CC1CCCN1C2=O` (stereo not shown) [DC-81, reference compound], in series [1], the “ΔTm after incubation at 37° C. for 0 h” value was determined as 0.3 °C and the “ΔTm after incubation at 37° C. for 18 h” value turned out to be 0.7 °C.

For `COc1cc2c(cc1OCCCCCCOc1c(Cl)cc(Cl)cc1C(=O)c1ccccc1)N=C[C@@H]1CCCN1C2=O` [Compound 5i, 7-methoxy-8-{3-[2-benzoyl-(4,6-di-chlorophenyloxy)hexyloxy]}-(11aS)-1,2,3,11a-tetrahydro-5H-pyrrolo[2,1-c][1,4]benzodiazepine-5-one], the “Activity status in terms of IC50 value” in the series on Hop62 (lung) was 40 µg/mL; with Colo205 (colon), above 80 µg/mL; in the series on Zr-75-1 (breast) (Zr-75-1, Breast) it was above 80 µg/mL; in the series with PC3 (prostate) (PC3, Prostate), above 80 µg/mL; in the series on HT1080 (oral) it was 30 µg/mL; with MCF7 (breast) (MCF7, Breast), above 80 µg/mL. The “Activity status in terms of IC50 value” was 58 µg/mL with DU145 (prostate), above 80 µg/mL with DWD (oral) (Oral) and above 80 µg/mL with SiHa (cervix) (Cervix). The “cell growth by %” value in the series with Hop62 (lung) is listed as 60%; in the series with HT1080 (oral) it was 70%; in the series with DU145 (prostate), 42%. Also, the “ΔTm after incubation at 37° C. for 0 h” value in series [1] turned out to be 1.5 °C. Besides, the “ΔTm after incubation at 37° C. for 18 h” value in [1] came to 1.9 °C. The “ΔTm after incubation at 37° C. for 36 h” value in series [1] was found to be 2.6 °C. In addition, the “course of ΔTm over 0 hr” value in series [1] is reported as “gradually increased”.

For `COc1cc2c(cc1OCC(=O)Nc1ccc(Cl)cc1C(=O)c1ccccc1Cl)N=C[C@@H]1CCCN1C2=O` [Compound 5j, 7-Methoxy-8-{N1-[4-chloro-2-(2-chlorobenzoyl)phenyl]2-oxyacetamido}-(11aS)-1,2,3,11a-tetrahydro-5H-pyrrolo[2,1-c][1,4]benzodiazepine-5-one], the “Activity status in terms of IC50 value” is 47 µg/mL in the series on Hop62 (lung); 56 µg/mL with Colo205 (colon); above 80 µg/mL with Zr-75-1 (breast) (Zr-75-1, Breast); 19 µg/mL in the series on PC3 (prostate) (PC3, Prostate); 29 µg/mL in the series with HT1080 (oral); 68 µg/mL with MCF7 (breast) (MCF7, Breast). Also, the “Activity status in terms of IC50 value” in the series with DU145 (prostate) came out at 43 µg/mL; in the series on DWD (oral) (Oral), 35 µg/mL; in the series on SiHa (cervix) (Cervix) it was 23 µg/mL. Also, the “cell growth by %” value in the series on Hop62 (lung) is on record as 53%; in the series with Colo205 (colon) it was 44%; in the series on PC3 (prostate), 81%; in the series with HT1080 (oral), 71%; in the series on DU145 (prostate) it was 57%; in the series on DWD (oral), 65%. Moreover, in the series on SiHa (cervix), the “cell growth by %” value worked out at 77%. The “ΔTm after incubation at 37° C. for 0 h” value in [1] came to 1.8 °C. Also, the “ΔTm after incubation at 37° C. for 18 h” value in series [1] came to 2.0 °C. In addition, the “ΔTm after incubation at 37° C. for 36 h” value in series [1] was 2.8 °C. Besides, in series [1], the “course of ΔTm over 0 hr” value is “gradually increased”.

(Values after patent US7528128B2, “Pyrrolo[2,1-C][1,4]benzodiazepine hybrids and a process for the preparation thereof” (Council of Scientific & Industrial Research, priority 2006, dated 2009).)
